Source: patent publication US5270182A, “Antibiotic compounds and their production” (Hoechst Aktiengesellschaft, priority 1991, dated 1993)
Converted amounts (≈) assume the structure as drawn.

How the values were obtained:
Ent. faecalis 21777 = assay: MIC, agar-dilution method in Mueller-Hinton agar; assay type: cell-based; details: Enterococcus faecalis
Source text: (§1) Compound M901809 and its acid hydrolysis product M901809H are active against gram-positive bacteria.

Ent. faecalis 26777 = assay: MIC, agar-dilution method in Mueller-Hinton agar; assay type: cell-based; details: Enterococcus faecalis
Source text: as §1

Ent. faecalis 3903 = assay: MIC, agar-dilution method in Mueller-Hinton agar; assay type: cell-based; details: Enterococcus faecalis
Source text: as §1

Ent. faecalis 734 = assay: MIC, agar-dilution method in Mueller-Hinton agar; assay type: cell-based; details: Enterococcus faecalis
Source text: as §1

Ent. faecalis 782 = assay: MIC, agar-dilution method in Mueller-Hinton agar; assay type: cell-based; details: Enterococcus faecalis
Source text: as §1

Ent. faecalis D 65 = assay: MIC, agar-dilution method in Mueller-Hinton agar; assay type: cell-based; details: Enterococcus faecalis, D65
Source text: as §1

Ent. faecalis Eder = assay: MIC, agar-dilution method in Mueller-Hinton agar; assay type: cell-based; details: Enterococcus faecalis
Source text: as §1

Ent. faecalis UD8b = assay: MIC, agar-dilution method in Mueller-Hinton agar; assay type: cell-based; details: Enterococcus faecalis
Source text: as §1

Staph. aureus 20240 = assay: MIC, agar-dilution method in Mueller-Hinton agar; assay type: cell-based; details: Staphylococcus aureus, lactam resistant
Source text: as §1

Staph. aureus 209 P = assay: MIC, agar-dilution method in Mueller-Hinton agar; assay type: cell-based; details: Staphylococcus aureus
Source text: as §1

Staph. aureus 3066 = assay: MIC, agar-dilution method in Mueller-Hinton agar; assay type: cell-based; details: Staphylococcus aureus
Source text: as §1

Staph. aureus 20424 = assay: MIC, agar-dilution method in Mueller-Hinton agar; assay type: cell-based; details: Staphylococcus aureus, Erythromycin resistant
Source text: as §1
a = Erythromycin resistant

Staph. aureus 011UC5 = assay: MIC, agar-dilution method in Mueller-Hinton agar; assay type: cell-based; details: Staphylococcus aureus, methicillin resistant
Source text: as §1
(§2) Strains 5 to 26 are methicillin resistant staphylococci.

Staph. aureus 690 = assay: MIC, agar-dilution method in Mueller-Hinton agar; assay type: cell-based; details: Staphylococcus aureus, methicillin resistant
Source text: as §1, §2

Staph. aureus 694 = assay: MIC, agar-dilution method in Mueller-Hinton agar; assay type: cell-based; details: Staphylococcus aureus, methicillin resistant
Source text: as §1, §2

Staph. aureus 706 = assay: MIC, agar-dilution method in Mueller-Hinton agar; assay type: cell-based; details: Staphylococcus aureus, methicillin resistant
Source text: as §1, §2

Staph. aureus 710 = assay: MIC, agar-dilution method in Mueller-Hinton agar; assay type: cell-based; details: Staphylococcus aureus, methicillin resistant
Source text: as §1, §2

Staph. aureus 712 = assay: MIC, agar-dilution method in Mueller-Hinton agar; assay type: cell-based; details: Staphylococcus aureus, methicillin resistant
Source text: as §1, §2

Staph. aureus 722 = assay: MIC, agar-dilution method in Mueller-Hinton agar; assay type: cell-based; details: Staphylococcus aureus, methicillin resistant
Source text: as §1, §2

Staph. aureus 725 = assay: MIC, agar-dilution method in Mueller-Hinton agar; assay type: cell-based; details: Staphylococcus aureus, methicillin resistant
Source text: as §1, §2

Staph. aureus 789 = assay: MIC, agar-dilution method in Mueller-Hinton agar; assay type: cell-based; details: Staphylococcus aureus, methicillin resistant
Source text: as §1, §2

Staph. aureus C 31153 = assay: MIC, agar-dilution method in Mueller-Hinton agar; assay type: cell-based; details: Staphylococcus aureus, C31153, methicillin resistant
Source text: as §1, §2

Staph. aureus Co. 1 = assay: MIC, agar-dilution method in Mueller-Hinton agar; assay type: cell-based; details: Staphylococcus aureus, methicillin resistant
Source text: as §1, §2

Staph. aureus E 121 = assay: MIC, agar-dilution method in Mueller-Hinton agar; assay type: cell-based; details: Staphylococcus aureus, E121, methicillin resistant
Source text: as §1, §2

Staph. aureus E 88 = assay: MIC, agar-dilution method in Mueller-Hinton agar; assay type: cell-based; details: Staphylococcus aureus, E88, methicillin resistant
Source text: as §1, §2

Staph. epidermidis 109 = assay: MIC, agar-dilution method in Mueller-Hinton agar; assay type: cell-based; details: Staphylococcus epidermidis, methicillin resistant
Source text: as §1, §2

Staph. epidermidis 178 = assay: MIC, agar-dilution method in Mueller-Hinton agar; assay type: cell-based; details: Staphylococcus epidermidis, methicillin resistant
Source text: as §1, §2

Staph. epidermidis 2 Tub = assay: MIC, agar-dilution method in Mueller-Hinton agar; assay type: cell-based; details: Staphylococcus epidermidis, methicillin resistant
Source text: as §1, §2

Staph. epidermidis 291 = assay: MIC, agar-dilution method in Mueller-Hinton agar; assay type: cell-based; details: Staphylococcus epidermidis, methicillin resistant
Source text: as §1, §2

Staph. epidermidis 607 = assay: MIC, agar-dilution method in Mueller-Hinton agar; assay type: cell-based; details: Staphylococcus epidermidis, methicillin resistant
Source text: as §1, §2

Staph. haemolyticus 712 = assay: MIC, agar-dilution method in Mueller-Hinton agar; assay type: cell-based; details: Staphylococcus haemolyticus
Source text: as §1, §2

Staph. haemolyticus 809 = assay: MIC, agar-dilution method in Mueller-Hinton agar; assay type: cell-based; details: Staphylococcus haemolyticus
Source text: as §1, §2

Staph. epidermidis 823 = assay: MIC, agar-dilution method in Mueller-Hinton agar; assay type: cell-based; details: Staphylococcus epidermidis, Teicoplanin resistant, methicillin resistant
Source text: as §1
(§3) c = Teicoplanin resistant
as §2

Staph. epidermidis 825 = assay: MIC, agar-dilution method in Mueller-Hinton agar; assay type: cell-based; details: Staphylococcus epidermidis, Teicoplanin resistant, methicillin resistant
Source text: as §1, §3, §2

Ent. faecium van R1 = assay: MIC, agar-dilution method in Mueller-Hinton agar; assay type: cell-based; details: Enterococcus faecium, VANR1
Source text: as §1, §3
d = Vancomycin resistant

gram-positive bacteria = assay: activity against gram-positive bacteria; assay type: cell-based
Source text: as §1

staphylococci = assay: treatment of experimental animals infected with staphylococci; assay type: in vivo
streptococci = assay: treatment of experimental animals infected with streptococci; assay type: in vivo
Solubility = assay type: physicochemical

**Q.** With `CCCC1Cc2cc3c(c(O)c2C(=O)O1)-c1c(c(OC)c2oc4c(OC5CC(O)C(OC6CC(O)C(OC7CC(OC)C(O)C(C)O7)C(C)O6)C(C)O5)ccc(O)c4c(=O)c2c1O)C(O)C3O` (centres unmarked) [M901809] as the compound, how does the MIC (Ent. faecalis 21777) read?
**A.** 0.4 µg/mL (≈ 0.425 µM)

**Q.** And the MIC (Ent. faecalis 26777)?
**A.** 0.4 µg/mL (≈ 0.425 µM)

**Q.** And the MIC (Ent. faecalis 3903)?
**A.** 0.4 µg/mL (≈ 0.425 µM)

**Q.** What about the MIC (Ent. faecalis 734) of the same compound?
**A.** 0.4 µg/mL (≈ 0.425 µM)

**Q.** And the MIC (Ent. faecalis 782)?
**A.** 0.4 µg/mL (≈ 0.425 µM)

**Q.** What about the MIC (Ent. faecalis D 65) of the same compound?
**A.** 1.6 µg/mL (≈ 1.7 µM)

**Q.** What about the MIC (Ent. faecalis Eder) of the same compound?
**A.** 0.4 µg/mL (≈ 0.425 µM)

**Q.** And the MIC (Ent. faecalis UD8b)?
**A.** 0.8 µg/mL (≈ 0.85 µM)

**Q.** And the MIC (Staph. aureus 20240)?
**A.** 0.2 µg/mL (≈ 0.213 µM)

**Q.** And the MIC (Staph. aureus 209 P)?
**A.** 0.1 µg/mL (≈ 0.106 µM)

**Q.** What about the MIC (Staph. aureus 3066) of the same compound?
**A.** 0.2 µg/mL (≈ 0.213 µM)

**Q.** What about the MIC (Staph. aureus 20424) of the same compound?
**A.** 0.2 µg/mL (≈ 0.213 µM)

**Q.** What about the MIC (Staph. aureus 011UC5) of the same compound?
**A.** 0.1 µg/mL (≈ 0.106 µM)

**Q.** What about the MIC (Staph. aureus 690) of the same compound?
**A.** 0.2 µg/mL (≈ 0.213 µM)

**Q.** What about the MIC (Staph. aureus 694) of the same compound?
**A.** 0.2 µg/mL (≈ 0.213 µM)

**Q.** And the MIC (Staph. aureus 706)?
**A.** 0.2 µg/mL (≈ 0.213 µM)

**Q.** What about the MIC (Staph. aureus 710) of the same compound?
**A.** 0.2 µg/mL (≈ 0.213 µM)

**Q.** What about the MIC (Staph. aureus 712) of the same compound?
**A.** 0.2 µg/mL (≈ 0.213 µM)

**Q.** And the MIC (Staph. aureus 722)?
**A.** 0.2 µg/mL (≈ 0.213 µM)

**Q.** What about the MIC (Staph. aureus 725) of the same compound?
**A.** 0.1 µg/mL (≈ 0.106 µM)

**Q.** What about the MIC (Staph. aureus 789) of the same compound?
**A.** 0.1 µg/mL (≈ 0.106 µM)

**Q.** And the MIC (Staph. aureus C 31153)?
**A.** 0.1 µg/mL (≈ 0.106 µM)

**Q.** And the MIC (Staph. aureus Co. 1)?
**A.** 0.1 µg/mL (≈ 0.106 µM)

**Q.** And the MIC (Staph. aureus E 121)?
**A.** 0.2 µg/mL (≈ 0.213 µM)

**Q.** What about the MIC (Staph. aureus E 88) of the same compound?
**A.** 0.2 µg/mL (≈ 0.213 µM)

**Q.** And the MIC (Staph. epidermidis 109)?
**A.** 0.4 µg/mL (≈ 0.425 µM)

**Q.** And the MIC (Staph. epidermidis 178)?
**A.** 0.2 µg/mL (≈ 0.213 µM)

**Q.** What about the MIC (Staph. epidermidis 2 Tub) of the same compound?
**A.** 0.2 µg/mL (≈ 0.213 µM)

**Q.** And the MIC (Staph. epidermidis 291)?
**A.** 0.2 µg/mL (≈ 0.213 µM)

**Q.** And the MIC (Staph. epidermidis 607)?
**A.** 0.4 µg/mL (≈ 0.425 µM)

**Q.** And the MIC (Staph. haemolyticus 712)?
**A.** 0.2 µg/mL (≈ 0.213 µM)

**Q.** What about the MIC (Staph. haemolyticus 809) of the same compound?
**A.** 0.4 µg/mL (≈ 0.425 µM)

**Q.** And the MIC (Staph. epidermidis 823)?
**A.** 0.4 µg/mL (≈ 0.425 µM)

**Q.** And the MIC (Staph. epidermidis 825)?
**A.** 0.8 µg/mL (≈ 0.85 µM)

**Q.** And the MIC (Ent. faecium van R1)?
**A.** 1.6 µg/mL (≈ 1.7 µM)

**Q.** And the “activity against gram-positive bacteria” value (gram-positive bacteria)?
**A.** active

**Q.** What about the “activity in treatment of infected experimental animals” value (staphylococci) of the same compound?
**A.** active

**Q.** What about the “activity in treatment of infected experimental animals” value (streptococci) of the same compound?
**A.** active

**Q.** What about the Solubility (Solubility; in CH2Cl2) of the same compound?
**A.** Very soluble

**Q.** What about the Solubility (Solubility; in CH3CN) of the same compound?
**A.** Poor to moderate

**Q.** What about the Solubility (Solubility; in CHCl3) of the same compound?
**A.** Very soluble

**Q.** What about the Solubility (Solubility; in DMSO) of the same compound?
**A.** Very soluble

**Q.** And the Solubility (Solubility; in H2O)?
**A.** Insoluble

**Q.** And the Solubility (Solubility; in MeOH)?
**A.** Poor to moderate

**Q.** What about the Solubility (Solubility; in ethyl acetate) of the same compound?
**A.** Poor to moderate

**Q.** What about the Solubility (Solubility; in hexane) of the same compound?
**A.** Insoluble

**Q.** And the Solubility (Solubility; in petroleum ether (40-60° C.))?
**A.** Insoluble
